# Reference: paper PMC11766601, “A Comparative Study of the In Vitro Intestinal Permeability of Pinnatoxins and Portimine” (Marine Drugs, 2025)
# Legend:
# Caco-2 cells = experiment: Trans-epithelial electrical resistance (TEER) of differentiated Caco-2 monolayers; assay type: cell-based, human
# Procedure: (§1) All experiments were performed with human intestinal Caco-2 cells (ATCC-HTB37), acquired from the American Type Culture Collection (ATCC; Manassas, VA, USA). Caco-2 cells originate from a colorectal adenocarcinoma, but upon reaching confluence, they differentiate and express the characteristics of enterocytes. The cells were cultivated in minimum essential medium containing 5.5 mM D-glucose, Earle’s salts, and 2 mM L-alanyl-glutamine (MEM GlutaMAX™, Gibco, Bromont, QC, Canada) supplemented with 10% fetal bovine serum (FBS, Gibco), 1% non-essential amino acids, 50 U/mL penicillin, and 50 μg/mL streptomycin (Gibco) under humidified conditions (37 °C, 5% CO2, 95% humidity). The cells were grown for 3–4 days up to 80% confluence before trypsinization and sub-culture. For the experiments, the cells were seeded in TRANSWELL® plates (12 wells, 0.4 µm pore size; Costar®, Corning Incorporated, Corning, NY, USA) at a density of 90,000 cells/cm^2. Prior to toxin treatment, highly differentiated Caco-2 cells were obtained after 24–26 days of culture, with medium renewal every 2–3 days. Passage numbers between 30 and 40 were used for experiments.
# (§2) PnTX-A, PnTX-G, PnTX-E, PnTX-H, and portimine stock solutions were prepared in methanol, while PnTX-F was provided in acetonitrile/acetic acid (50%/0.1%). For each toxin, the cells were incubated at 8, 16, and 32 ng/mL (diluted in HBSS) for 2 h, 6 h, and 24 h, with a final volume of 1.5% solvent. The controls were incubated with the cell culture medium containing the respective solvent of the toxin at 1.5%. Each experiment included three biological replicates. Two to three independent experiments were conducted.
# Epithelial integrity was examined by measuring the TEER between the apical and basolateral compartments. After rinsing with a HBSS solution (HBSS, HEPES 5 mM, pH 7.4), the Caco-2 monolayers were equilibrated for 30 min at 37 °C with 300 and 1000 µL HBSS in the apical (A) and basolateral (B) chambers, respectively. Then, the content of the apical compartment was replaced with 500 µL HBSS-containing toxins. TEER was quantified with a Millipore Millicell Electrical Resistance System (ERS Millipore, EMD Millipore Corporation, Burlington, MA, USA). The mean value of two measurements per well before and after the treatment was calculated and multiplied by the surface of the insert to obtain Ω × cm^2. After blank subtraction, the results were presented as a percentage of the solvent control.
# Caco-2 cell monolayers [1] = experiment: Lucifer Yellow paracellular permeability (barrier integrity); assay type: cell-based, human; conditions: 24 h
# Procedure: as §1, §2
# For the assay, both compartments of the insert system were washed with Hank’s balanced salt solution (HBSS). Then, 0.5 mL of 0.1 mg/mL Lucifer Yellow in HBSS buffer and 1 mL of pure HBSS buffer were added to the apical and basolateral compartments, respectively. After a 2 h incubation at 37 °C, the media of the basolateral compartments were collected and the fluorescence of each compartment was measured in triplicate (excitation: 405 nm, emission: 520 nm) with a FLUOstar Optima microplate reader (BMG Labtech, Ortenberg, Germany). After subtraction of the blank (HBSS), the permeability of the […] was calculated against the value obtained for pure LY and reported as % permeability.
# [2] = Toxin crossing and apparent permeability across Caco-2 cell monolayers (A to B), LC-MS/MS; assay type: in vitro ADME, human; conditions: human, Caco-2; for Papp at 2 h, 8 ng/mL / Papp at 6 h, 8 ng/mL: loaded 8 ng/mL; for Papp at 2 h, 8 ng/mL / Papp at 2 h, 16 ng/mL / Papp at 2 h, 32 ng/mL / Papp at 6 h, 8 ng/mL / Papp at 6 h, 16 ng/mL / Papp at 6 h, 32 ng/mL: A to B; for Papp at 2 h, 16 ng/mL / Papp at 6 h, 16 ng/mL: loaded 16 ng/mL; for Papp at 2 h, 32 ng/mL / Papp at 6 h, 32 ng/mL: loaded 32 ng/mL
# Procedure: as §1, §2
# (§3) The apical and basolateral compartments were collected after 2, 6, and 24 h treatment time. Parts of the solutions that were used to load the apical compartments were also stored (T0) to take into account the real concentration and not the estimated concentration. All the samples were stored at −20 °C until LC/MS analysis.
# (§4) The LC-MS/MS analysis of toxins was implemented for the quantitative analysis of toxins. The LC system was an Agilent 1200 (Agilent Technologies, Santa Clara, CA, USA). The chromatographic separation was performed using a column Hypersil GOLD® C18 50 mm × 2.1 mm, 1.9 μm (Thermo Scientific, Waltham, MA, USA). Eluent A consisted of water, and eluent B of acetonitrile/water at a ratio of 95:5 (v/v), with both eluents containing 50 mM formic acid and 2 mM ammonium formate. The LC flow rate was 0.4 mL/min, and the gradient was programmed as follows: 10% B held for 0.5 min, 10–90% B in 5 min, 90% B held for 1 min, 90–10% B in 0.5 min, and 10% B held for 3.0 min, for a total run time of 10 min. The injection volume was 5 μL, while the column temperature was maintained at 40 °C. The column effluent was transferred via a divert valve (Valco Instruments Co., Inc., Houston, TX, USA), either to the mass spectrometer (between 1.7 and 5.5 min) or to waste.
# (§5) The detection system was constructed with an API 4000 triple quadrupole mass spectrometer (Sciex, Framingham, MA, USA) equipped with an ElectroSpray Ionization (ESI) source (Turbo V). The mass spectrometer was operated in positive ESI mode. The source temperature was set at 600 °C, and the spray voltage was 5500 V. Air was used as a nebulizer gas and an auxiliary gas, with a gas pressure of 40 and 60 psi, respectively. Meanwhile, the curtain gas and collision gas were nitrogen, with a gas pressure of 15 and 8 psi, respectively. The mass spectrometer was operated in multiple reaction monitoring mode (MRM). One transition was used for quantification (Q) and another as a qualifier transition (q). A mass resolution of 0.7 Da full width at half maximum (FWHD) was set on the first (Q1) and the third (Q3) quadrupoles. Instrument control and data were handled with Analyst software version 1.5.1 (Sciex, Framingham, MA, USA).
# (§6) The portimine and PnTX retention times varied between 2.7 and 4.4 min (Figure S1). […]
# Caco-2 cell monolayers [3] = experiment: as above; assay type: in vitro ADME, human; conditions: for % theoretical amount of toxin crossing the Caco-2 cell monolayers: relative to theoretical loaded concentration; for Percentage of toxin crossing the Caco-2 cell monolayers: A to B, relative to quantified T0; for permeability / oral bioavailability class from Caco-2 Papp: threshold Papp > 1.5 × 10^−6 cm·s^−1 = highly penetrative
# Procedure: as §1, §2, §3, §4, §5, §6
smiles,measurement,setting,value
C=C1CCCC2=NCC(C)C(C)CC23CCC(C(=O)O)=CC3C2OC3(CC4CCCC5(CCC6(OC(CCC6(C)O)C1)O5)O4)CC(C)C(O)C2O3 (stereo not drawn) [PnTX-A],effect on TEER,"Caco-2 cells; irrespective of time (2, 6, 24 h) and concentration (8, 16, 32 ng/mL)",no effect
same,effect on LY permeability,"Caco-2 cell monolayers [1]; all concentrations (8, 16, 32 ng/mL)",significant increase
same,Papp,"[2]; 2 and 6 h, 8-32 ng/mL, read-out: Papp, range of means",1.25 to 2.13 ×10⁻⁶ cm/s
same,"Papp at 2 h, 8 ng/mL",[2],1.45 ± 1.03 ×10⁻⁶ cm/s
same,"Papp at 2 h, 16 ng/mL",[2],1.4 ± 0.21 ×10⁻⁶ cm/s
same,"Papp at 2 h, 32 ng/mL",[2],1.25 ± 0.39 ×10⁻⁶ cm/s
same,"Papp at 6 h, 8 ng/mL",[2],2.13 ± 0.38 ×10⁻⁶ cm/s
same,"Papp at 6 h, 16 ng/mL",[2],1.92 ± 0.95 ×10⁻⁶ cm/s
same,"Papp at 6 h, 32 ng/mL",[2],1.48 ± 0.41 ×10⁻⁶ cm/s
same,% theoretical amount of toxin crossing the Caco-2 cell monolayers,"Caco-2 cell monolayers [3]; 2 h, 8 ng/mL",2.83 ± 2.1%
same,% theoretical amount of toxin crossing the Caco-2 cell monolayers,"Caco-2 cell monolayers [3]; 2 h, 16 ng/mL",2.5 ± 0.33%
same,% theoretical amount of toxin crossing the Caco-2 cell monolayers,"Caco-2 cell monolayers [3]; 2 h, 32 ng/mL",2.60 ± 0.80%
same,Percentage of toxin crossing the Caco-2 cell monolayers,"Caco-2 cell monolayers [3]; 2 h, loaded 8 ng/mL",2.35 ± 1.66%
same,Percentage of toxin crossing the Caco-2 cell monolayers,"Caco-2 cell monolayers [3]; 2 h, loaded 16 ng/mL",2.26 ± 0.34%
same,Percentage of toxin crossing the Caco-2 cell monolayers,"Caco-2 cell monolayers [3]; 2 h, loaded 32 ng/mL",2.01 ± 0.63%
same,% theoretical amount of toxin crossing the Caco-2 cell monolayers,"Caco-2 cell monolayers [3]; 6 h, 8 ng/mL",4.08 ± 0.52%
same,% theoretical amount of toxin crossing the Caco-2 cell monolayers,"Caco-2 cell monolayers [3]; 6 h, 16 ng/mL",3.42 ± 1.63%
same,% theoretical amount of toxin crossing the Caco-2 cell monolayers,"Caco-2 cell monolayers [3]; 6 h, 32 ng/mL",3.12 ± 1.05%
same,Percentage of toxin crossing the Caco-2 cell monolayers,"Caco-2 cell monolayers [3]; 6 h, loaded 8 ng/mL",3.44 ± 0.62%
same,Percentage of toxin crossing the Caco-2 cell monolayers,"Caco-2 cell monolayers [3]; 6 h, loaded 16 ng/mL",3.10 ± 1.53%
same,Percentage of toxin crossing the Caco-2 cell monolayers,"Caco-2 cell monolayers [3]; 6 h, loaded 32 ng/mL",2.39 ± 0.65%
same,amount of toxin crossing the intestinal barrier in vitro,"Caco-2 cell monolayers [3]; regardless of the concentration loaded, 2 and 6 h",< 4%
same,permeability / oral bioavailability class from Caco-2 Papp,Caco-2 cell monolayers [3],poor permeability
"C=CC1=CC2C3OC4(CC(C)CC3O4)CC3OC4(CCC5(OC(CCC5(C)O)CC(=C)CCCC5=NCC(C)C(C)CC52CC1)O4)CC(C)C3O (stereo not drawn) [PnTX-H, Pinnatoxin H]",effect on TEER,"Caco-2 cells; 24 h, 32 ng/mL","slight, but non-significant, decrease"
same,effect on passage of LY,Caco-2 cell monolayers [1],lower effect
same,effect on LY permeability,Caco-2 cell monolayers [1]; 32 ng/mL only,significant increase
same,"Papp at 2 h, 8 ng/mL",[2],19.5 ± 3.14 ×10⁻⁶ cm/s
same,"Papp at 2 h, 16 ng/mL",[2],13.7 ± 4.83 ×10⁻⁶ cm/s
same,"Papp at 2 h, 32 ng/mL",[2],18 ± 2.19 ×10⁻⁶ cm/s
same,"Papp at 6 h, 8 ng/mL",[2],36 ± 5.4 ×10⁻⁶ cm/s
same,"Papp at 6 h, 16 ng/mL",[2],30.3 ± 6.69 ×10⁻⁶ cm/s
same,"Papp at 6 h, 32 ng/mL",[2],33.6 ± 2.43 ×10⁻⁶ cm/s
same,% theoretical amount of toxin crossing the Caco-2 cell monolayers,"Caco-2 cell monolayers [3]; 2 h, 8 ng/mL",3.96 ± 0.19%
same,% theoretical amount of toxin crossing the Caco-2 cell monolayers,"Caco-2 cell monolayers [3]; 2 h, 16 ng/mL",3.21±0.94%
same,% theoretical amount of toxin crossing the Caco-2 cell monolayers,"Caco-2 cell monolayers [3]; 2 h, 32 ng/mL",4.32 ± 1.10%
same,Percentage of toxin crossing the Caco-2 cell monolayers,"Caco-2 cell monolayers [3]; 2 h, loaded 8 ng/mL",31.52 ± 5.07%
same,Percentage of toxin crossing the Caco-2 cell monolayers,"Caco-2 cell monolayers [3]; 2 h, loaded 16 ng/mL",22.05 ± 7.80%
same,Percentage of toxin crossing the Caco-2 cell monolayers,"Caco-2 cell monolayers [3]; 2 h, loaded 32 ng/mL",29.07 ± 3.54%
same,% theoretical amount of toxin crossing the Caco-2 cell monolayers,"Caco-2 cell monolayers [3]; 6 h, 8 ng/mL",7.37 ± 1.42%
same,% theoretical amount of toxin crossing the Caco-2 cell monolayers,"Caco-2 cell monolayers [3]; 6 h, 16 ng/mL",7.10 ± 0.79%
same,% theoretical amount of toxin crossing the Caco-2 cell monolayers,"Caco-2 cell monolayers [3]; 6 h, 32 ng/mL",8.04 ± 1.80%
same,Percentage of toxin crossing the Caco-2 cell monolayers,"Caco-2 cell monolayers [3]; 6 h, loaded 8 ng/mL",58.06 ± 8.71%
same,Percentage of toxin crossing the Caco-2 cell monolayers,"Caco-2 cell monolayers [3]; 6 h, loaded 16 ng/mL",48.83 ± 11.22%
same,Percentage of toxin crossing the Caco-2 cell monolayers,"Caco-2 cell monolayers [3]; 6 h, loaded 32 ng/mL",54.22 ± 3.91%
same,permeability / oral bioavailability class from Caco-2 Papp,Caco-2 cell monolayers [3],high oral bioavailability
